Experimental data reported in patent US9388208B2, “Pyrrolo[1,2-f][1,2,4]triazines useful for treating respiratory syncitial virus infections” (Gilead Sciences, Inc., priority 2013, dated 2016).

Columns and labels:
RSV strain A2 = test: Anti-RSV activity, infectious cytopathic cell protection assay in HEp-2 cells; assay type: cell-based, Respiratory Syncytial Virus (RSV); conditions: human respiratory syncytial virus, HEp-2, 96 h
Method in brief: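 Near-confluent HEp-2 cells at 50,000/ml infected with titrated RSV A2 and dispensed onto 3-fold compound dilutions, then incubated 4 days at 37° C. Protection from virus-induced cytopathic effect read as CellTiter-Glo luminescence, normalized to 0% and 100% inhibition controls; EC50 by non-linear regression.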

HEp-2 cells = test: Cytotoxicity assay in HEp-2 cells; assay type: cell-based; conditions: uninfected HEp-2 cells, 4 days, CellTiter Glo
Method in brief: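 Uninfected HEp-2 cells added to prediluted compound, incubated 4 days, viability read by CellTiter Glo luminescence. Untreated cells set 100% and 2 uM puromycin 0% viability; CC50 fitted by non-linear regression as concentration reducing viability by 50%.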

MT-4 cells = test: Cytotoxicity assay in MT-4 cells; assay type: cell-based; conditions: 5 days, Cell-Titer Glo
Method in brief: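 Compounds in 3-fold serial dilution (26 nM to 530 μM, 100× concentrations in medium) incubated in quadruplicate with 2×10^3 MT-4 cells for 5 days at 37° C; viability by CellTiter-Glo luminescence. CC50 from 4-parameter fit (Top/Bottom fixed 100%/0%), mean±SD of 3 independent experiments.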

CC(C)(C)C(=O)SCCOP(=O)(OCCSC(=O)C(C)(C)C)OC[C@@]1(C#N)O[C@@H](c2ccc3c(N)ncnn23)[C@H](O)[C@@H]1O [Example 10, S,S′-2,2′-((((2R,3S,4R,5S)-5-(4-aminopyrrolo[1,2-f][1,2,4]triazin-7-yl)-2-cyano-3,4-dihydroxytetrahydrofuran-2-yl)methoxy)phosphoryl)bis(oxy)bis(ethane-2,1-diyl)bis(2,2-dimethylpropanethioate)]
EC50 (RSV strain A2): 1 µM | CC50 (HEp-2 cells): 39 µM | CC50 (MT-4 cells): 7.3 µM
